Assay results published in paper PMC7385619, “A triple action CDK4/6-PI3K-BET inhibitor with augmented cancer cell cytotoxicity” (Cell Discovery, 2020).
Where two headings read alike, the source gives them in different places.

Assays:
Assay in all cases: KINOMEscan assay (Eurofins DiscoverX)
Format in all cases: binding
kinome (kinase panel) [1] = molecular target: T1, kinome (kinase panel) (Homo sapiens, UniProt Q8TD19); conditions: NEK9; 1000 nM; read-out: Percent Control
T1 construct: purchased Eurofins DiscoverX

kinome (kinase panel) [2] = molecular target: T2, kinome (kinase panel) (Homo sapiens, UniProt O00750); conditions: PIK3C2B; 1000 nM; read-out: Percent Control
T2 construct: purchased Eurofins DiscoverX

kinome (kinase panel) [3] = molecular target: T3, kinome (kinase panel) (Homo sapiens, UniProt P52333); conditions: JAK3(JH1domain-catalytic); 1000 nM; read-out: Percent Control
T3 construct: purchased Eurofins DiscoverX

kinome (kinase panel) [4] = molecular target: T4, kinome (kinase panel) (Homo sapiens, UniProt P17612); conditions: PKAC-alpha (Entrez PRKACA); 1000 nM; read-out: Percent Control
T4 construct: purchased Eurofins DiscoverX

kinome (kinase panel) [5] = molecular target: T5, kinome (kinase panel) (Homo sapiens, UniProt Q6P3R8); conditions: NEK5; 1000 nM; read-out: Percent Control
T5 construct: purchased Eurofins DiscoverX

kinome (kinase panel) [6] = molecular target: T6, kinome (kinase panel) (Homo sapiens, UniProt Q04771); conditions: ACVR1; 1000 nM; read-out: Percent Control
T6 construct: purchased Eurofins DiscoverX

kinome (kinase panel) [7] = molecular target: T7, kinome (kinase panel) (Homo sapiens, UniProt Q13557); conditions: CAMK2D; 1000 nM; read-out: Percent Control
T7 construct: purchased Eurofins DiscoverX

kinome (kinase panel) [8] = molecular target: T8, kinome (kinase panel) (Homo sapiens, UniProt Q9P2K8, S808G); conditions: read-out: Percent Control
T8 construct: purchased Eurofins DiscoverX

kinome (kinase panel) [9] = molecular target: T9, kinome (kinase panel) (Homo sapiens, UniProt Q15418); conditions: 1000 nM, read-out: Percent Control
T9 construct: purchased Eurofins DiscoverX

kinome (kinase panel) [10] = molecular target: T10, kinome (kinase panel) (Homo sapiens, UniProt Q8NFD2); conditions: ANKK1; 1000 nM; read-out: Percent Control
T10 construct: purchased Eurofins DiscoverX

kinome (kinase panel) [11] = molecular target: T11, kinome (kinase panel) (Homo sapiens, UniProt Q9UHD2); conditions: TBK1; 1000 nM; read-out: Percent Control
T11 construct: purchased Eurofins DiscoverX

kinome (kinase panel) [12] = molecular target: T12, kinome (kinase panel) (Homo sapiens, UniProt P27448); conditions: MARK3; 1000 nM; read-out: Percent Control
T12 construct: purchased Eurofins DiscoverX

kinome (kinase panel) [13] = molecular target: T13, kinome (kinase panel) (Homo sapiens, UniProt O15197); conditions: EPHB6; 1000 nM; read-out: Percent Control
T13 construct: purchased Eurofins DiscoverX

kinome (kinase panel) [14] = molecular target: T14, kinome (kinase panel) (Homo sapiens, UniProt P53667); conditions: LIMK1; 1000 nM; read-out: Percent Control
T14 construct: purchased Eurofins DiscoverX

kinome (kinase panel) [15] = molecular target: T15, kinome (kinase panel) (Homo sapiens, UniProt O15146); conditions: MUSK; 1000 nM; read-out: Percent Control
T15 construct: purchased Eurofins DiscoverX

kinome (kinase panel) [16] = molecular target: T16, kinome (kinase panel) (Homo sapiens, UniProt P51617); conditions: IRAK1; 1000 nM; read-out: Percent Control
T16 construct: purchased Eurofins DiscoverX

kinome (kinase panel) [17] = molecular target: T17, kinome (kinase panel) (Homo sapiens, UniProt Q9NRP7); conditions: STK36; 1000 nM; read-out: Percent Control
T17 construct: purchased Eurofins DiscoverX

kinome (kinase panel) [18] = molecular target: T18, kinome (kinase panel) (Homo sapiens, UniProt P07949); conditions: RET; 1000 nM; read-out: Percent Control
T18 construct: purchased Eurofins DiscoverX

kinome (kinase panel) [19] = molecular target: T19, kinome (kinase panel) (Homo sapiens, UniProt Q9BRS2); conditions: RIOK1; 1000 nM; read-out: Percent Control
T19 construct: purchased Eurofins DiscoverX

kinome (kinase panel) [20] = molecular target: T20, kinome (kinase panel) (Homo sapiens, UniProt Q59H18); conditions: TNNI3K; 1000 nM; read-out: Percent Control
T20 construct: purchased Eurofins DiscoverX

kinome (kinase panel) [21] = molecular target: T21, kinome (kinase panel) (Homo sapiens, UniProt Q15746); conditions: MYLK; 1000 nM; read-out: Percent Control
T21 construct: purchased Eurofins DiscoverX

kinome (kinase panel) [22] = molecular target: T22, kinome (kinase panel) (Homo sapiens, UniProt Q92630); conditions: DYRK2; 1000 nM; read-out: Percent Control
T22 construct: purchased Eurofins DiscoverX

kinome (kinase panel) [23] = molecular target: T23, kinome (kinase panel) (Homo sapiens, UniProt P37173); conditions: TGFBR2; 1000 nM; read-out: Percent Control
T23 construct: purchased Eurofins DiscoverX

kinome (kinase panel) [24] = molecular target: T24, kinome (kinase panel) (Homo sapiens, UniProt P11362); conditions: FGFR1; 1000 nM; read-out: Percent Control
T24 construct: purchased Eurofins DiscoverX

kinome (kinase panel) [25] = molecular target: T25, kinome (kinase panel) (Homo sapiens, UniProt P36888, N841I); conditions: […]; 1000 nM; read-out: Percent Control
T25 construct: purchased Eurofins DiscoverX

kinome (kinase panel) [26] = molecular target: T26, kinome (kinase panel) (Homo sapiens, UniProt Q13555); conditions: CAMK2G; 1000 nM; read-out: Percent Control
T26 construct: purchased Eurofins DiscoverX

kinome (kinase panel) [27] = molecular target: T27, kinome (kinase panel) (Homo sapiens, UniProt Q96PY6); conditions: NEK1; 1000 nM; read-out: Percent Control
T27 construct: purchased Eurofins DiscoverX

kinome (kinase panel) [28] = molecular target: T28, kinome (kinase panel) (Homo sapiens, UniProt P54760); conditions: EPHB4; 1000 nM; read-out: Percent Control
T28 construct: purchased Eurofins DiscoverX

kinome (kinase panel) [29] = molecular target: T29, kinome (kinase panel) (Homo sapiens, UniProt Q16566); conditions: CAMK4; 1000 nM; read-out: Percent Control
T29 construct: purchased Eurofins DiscoverX

kinome (kinase panel) [30] = molecular target: T30, kinome (kinase panel) (Homo sapiens, UniProt P10721, L576P); conditions: […]; 1000 nM; read-out: Percent Control
T30 construct: purchased Eurofins DiscoverX

kinome (kinase panel) [31] = molecular target: T31, kinome (kinase panel) (Homo sapiens, UniProt Q86V86); conditions: PIM3; 1000 nM; read-out: Percent Control
T31 construct: purchased Eurofins DiscoverX

kinome (kinase panel) [32] = molecular target: T32, kinome (kinase panel) (Homo sapiens, UniProt Q9UKI8); conditions: TLK1; 1000 nM; read-out: Percent Control
T32 construct: purchased Eurofins DiscoverX

kinome (kinase panel) [33] = molecular target: T33, kinome (kinase panel) (Homo sapiens, UniProt Q99759); conditions: MAP3K3; 1000 nM; read-out: Percent Control
T33 construct: purchased Eurofins DiscoverX

T9 sequence (Q15418 whole entry): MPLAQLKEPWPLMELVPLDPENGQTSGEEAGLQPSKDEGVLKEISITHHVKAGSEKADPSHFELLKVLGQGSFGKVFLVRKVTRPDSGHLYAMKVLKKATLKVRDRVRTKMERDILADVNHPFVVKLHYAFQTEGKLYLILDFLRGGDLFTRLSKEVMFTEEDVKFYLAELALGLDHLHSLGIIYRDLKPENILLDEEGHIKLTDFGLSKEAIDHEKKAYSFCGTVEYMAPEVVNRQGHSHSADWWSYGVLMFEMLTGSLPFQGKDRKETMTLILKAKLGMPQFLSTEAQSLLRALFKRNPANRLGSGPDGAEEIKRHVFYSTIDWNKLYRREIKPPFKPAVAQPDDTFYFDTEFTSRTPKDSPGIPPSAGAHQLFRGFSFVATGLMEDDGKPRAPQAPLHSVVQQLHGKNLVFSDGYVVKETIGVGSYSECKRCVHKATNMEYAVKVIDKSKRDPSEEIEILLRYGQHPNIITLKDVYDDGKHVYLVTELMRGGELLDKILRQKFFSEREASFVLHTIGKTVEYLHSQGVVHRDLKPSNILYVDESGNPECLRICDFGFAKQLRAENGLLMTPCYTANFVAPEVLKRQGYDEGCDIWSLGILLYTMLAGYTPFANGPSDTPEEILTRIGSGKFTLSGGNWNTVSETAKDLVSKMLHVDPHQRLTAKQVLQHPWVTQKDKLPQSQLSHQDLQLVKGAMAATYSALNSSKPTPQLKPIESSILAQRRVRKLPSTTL
T11 sequence (Q9UHD2 whole entry): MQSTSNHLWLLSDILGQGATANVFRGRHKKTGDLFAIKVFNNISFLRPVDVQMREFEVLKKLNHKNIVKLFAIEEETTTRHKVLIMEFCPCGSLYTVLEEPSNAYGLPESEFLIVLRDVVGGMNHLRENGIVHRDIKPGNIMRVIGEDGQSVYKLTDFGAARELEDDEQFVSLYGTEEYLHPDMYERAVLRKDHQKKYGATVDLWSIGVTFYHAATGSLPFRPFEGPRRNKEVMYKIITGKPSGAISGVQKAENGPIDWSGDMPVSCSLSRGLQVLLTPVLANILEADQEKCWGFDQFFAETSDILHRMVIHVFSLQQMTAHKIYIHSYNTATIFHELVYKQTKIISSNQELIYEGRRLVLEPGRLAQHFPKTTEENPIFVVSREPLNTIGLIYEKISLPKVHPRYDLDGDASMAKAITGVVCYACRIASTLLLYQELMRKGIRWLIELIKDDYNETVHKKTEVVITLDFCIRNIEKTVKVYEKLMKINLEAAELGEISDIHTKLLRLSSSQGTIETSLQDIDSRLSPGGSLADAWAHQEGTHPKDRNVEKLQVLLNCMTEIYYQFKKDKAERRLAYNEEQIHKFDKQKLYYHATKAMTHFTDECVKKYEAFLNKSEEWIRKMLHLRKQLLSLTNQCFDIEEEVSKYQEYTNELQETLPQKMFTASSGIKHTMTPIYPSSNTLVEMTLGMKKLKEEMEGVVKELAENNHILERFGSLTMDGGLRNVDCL
T23 sequence (P37173 23-567): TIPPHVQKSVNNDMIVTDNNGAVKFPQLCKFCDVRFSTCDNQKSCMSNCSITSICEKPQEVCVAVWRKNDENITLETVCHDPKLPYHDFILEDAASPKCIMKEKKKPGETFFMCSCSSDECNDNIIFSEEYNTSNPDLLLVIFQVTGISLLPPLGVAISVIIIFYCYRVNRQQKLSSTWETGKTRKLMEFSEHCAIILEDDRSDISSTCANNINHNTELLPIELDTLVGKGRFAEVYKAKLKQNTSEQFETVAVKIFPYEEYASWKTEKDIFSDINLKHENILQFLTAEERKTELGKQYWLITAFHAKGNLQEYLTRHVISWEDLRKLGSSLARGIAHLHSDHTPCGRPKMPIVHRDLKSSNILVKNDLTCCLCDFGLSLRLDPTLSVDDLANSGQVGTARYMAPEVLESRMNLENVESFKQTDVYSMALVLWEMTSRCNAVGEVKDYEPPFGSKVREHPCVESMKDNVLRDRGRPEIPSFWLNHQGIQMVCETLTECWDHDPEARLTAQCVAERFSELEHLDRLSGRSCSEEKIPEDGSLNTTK
T12 sequence (P27448 whole entry): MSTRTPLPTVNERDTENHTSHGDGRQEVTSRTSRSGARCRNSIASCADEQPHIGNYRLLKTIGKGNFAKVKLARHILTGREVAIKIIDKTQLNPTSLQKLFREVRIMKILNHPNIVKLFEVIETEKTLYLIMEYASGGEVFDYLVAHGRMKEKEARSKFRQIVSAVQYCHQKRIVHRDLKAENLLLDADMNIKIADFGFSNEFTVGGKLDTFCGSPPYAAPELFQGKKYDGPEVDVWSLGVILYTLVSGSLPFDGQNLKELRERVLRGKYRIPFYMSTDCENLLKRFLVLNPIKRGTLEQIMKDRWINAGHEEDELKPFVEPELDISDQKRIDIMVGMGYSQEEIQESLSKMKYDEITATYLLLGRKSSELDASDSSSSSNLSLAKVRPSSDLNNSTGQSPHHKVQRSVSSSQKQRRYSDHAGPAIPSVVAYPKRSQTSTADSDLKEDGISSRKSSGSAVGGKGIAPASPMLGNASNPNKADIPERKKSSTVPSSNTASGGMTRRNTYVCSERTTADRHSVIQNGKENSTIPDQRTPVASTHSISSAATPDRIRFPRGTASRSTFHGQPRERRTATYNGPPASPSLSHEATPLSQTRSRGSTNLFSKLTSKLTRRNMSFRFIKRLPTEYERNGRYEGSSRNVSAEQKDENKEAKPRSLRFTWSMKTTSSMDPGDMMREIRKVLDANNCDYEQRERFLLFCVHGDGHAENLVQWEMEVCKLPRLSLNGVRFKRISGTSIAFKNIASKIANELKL
T8 sequence (Q9P2K8 whole entry S808G): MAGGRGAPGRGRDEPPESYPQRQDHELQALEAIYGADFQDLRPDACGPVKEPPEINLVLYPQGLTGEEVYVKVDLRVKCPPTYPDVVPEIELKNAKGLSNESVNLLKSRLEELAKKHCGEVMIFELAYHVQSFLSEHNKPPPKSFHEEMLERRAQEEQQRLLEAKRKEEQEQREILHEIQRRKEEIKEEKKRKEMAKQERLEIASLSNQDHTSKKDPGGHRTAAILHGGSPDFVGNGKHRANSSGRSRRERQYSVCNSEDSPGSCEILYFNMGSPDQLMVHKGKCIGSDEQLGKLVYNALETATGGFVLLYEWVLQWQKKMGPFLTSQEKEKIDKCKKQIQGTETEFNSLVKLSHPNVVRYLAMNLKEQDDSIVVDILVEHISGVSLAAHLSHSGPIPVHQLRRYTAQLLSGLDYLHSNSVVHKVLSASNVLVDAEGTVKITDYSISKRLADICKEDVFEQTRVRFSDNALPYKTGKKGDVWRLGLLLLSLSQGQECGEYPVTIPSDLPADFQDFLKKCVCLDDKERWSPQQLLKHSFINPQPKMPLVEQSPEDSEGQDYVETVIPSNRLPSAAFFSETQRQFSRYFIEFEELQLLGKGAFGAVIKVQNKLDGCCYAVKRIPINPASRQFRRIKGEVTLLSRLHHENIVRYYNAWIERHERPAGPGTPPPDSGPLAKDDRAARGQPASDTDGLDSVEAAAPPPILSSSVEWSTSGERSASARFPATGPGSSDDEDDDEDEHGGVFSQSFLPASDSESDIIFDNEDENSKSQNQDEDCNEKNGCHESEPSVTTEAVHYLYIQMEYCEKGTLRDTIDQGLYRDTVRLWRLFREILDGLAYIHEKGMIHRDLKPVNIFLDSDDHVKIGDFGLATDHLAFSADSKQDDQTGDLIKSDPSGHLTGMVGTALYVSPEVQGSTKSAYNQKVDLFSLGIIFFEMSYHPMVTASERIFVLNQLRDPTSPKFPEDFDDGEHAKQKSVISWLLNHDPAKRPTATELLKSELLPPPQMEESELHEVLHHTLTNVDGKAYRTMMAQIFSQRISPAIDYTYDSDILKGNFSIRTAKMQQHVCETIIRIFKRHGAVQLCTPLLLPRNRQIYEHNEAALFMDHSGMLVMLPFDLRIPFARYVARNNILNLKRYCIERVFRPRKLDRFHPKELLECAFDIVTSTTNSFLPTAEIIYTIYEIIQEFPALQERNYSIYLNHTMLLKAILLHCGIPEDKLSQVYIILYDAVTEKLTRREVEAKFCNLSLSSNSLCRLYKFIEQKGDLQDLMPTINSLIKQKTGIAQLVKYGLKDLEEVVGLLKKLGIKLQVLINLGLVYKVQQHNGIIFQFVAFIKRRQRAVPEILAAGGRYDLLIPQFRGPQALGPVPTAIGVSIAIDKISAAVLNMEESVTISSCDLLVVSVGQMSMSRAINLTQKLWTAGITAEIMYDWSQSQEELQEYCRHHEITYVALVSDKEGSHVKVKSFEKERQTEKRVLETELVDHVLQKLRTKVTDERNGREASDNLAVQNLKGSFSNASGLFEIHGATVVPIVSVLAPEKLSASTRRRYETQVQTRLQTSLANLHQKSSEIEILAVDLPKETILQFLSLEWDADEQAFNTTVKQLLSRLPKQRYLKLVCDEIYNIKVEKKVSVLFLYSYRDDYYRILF

CN(C)C(=O)c1cc2cnc(Nc3ccc(-c4csc5c(=O)cc(N6CCOCC6)oc45)cc3)nc2n1C1CCCC1 [SRX3177]
remaining binding at 1 µM (kinome (kinase panel) [1]): 100%
remaining binding at 1 µM (kinome (kinase panel) [2]): 86%
remaining binding at 1 µM (kinome (kinase panel) [3]): 13%
remaining binding at 1 µM (kinome (kinase panel) [4]): 96%
remaining binding at 1 µM (kinome (kinase panel) [5]): 93%
remaining binding at 1 µM (kinome (kinase panel) [6]): 84%
remaining binding at 1 µM (kinome (kinase panel) [7]): 65%
remaining binding at 1 µM (kinome (kinase panel) [8]): 71%
remaining binding at 1 µM (kinome (kinase panel) [9]; RSK1(Kin.Dom.1-N-terminal) (RPS6KA1)): 100%
remaining binding at 1 µM (kinome (kinase panel) [9]; RSK1(Kin.Dom.2-C-terminal) (RPS6KA1)): 100%
remaining binding at 1 µM (kinome (kinase panel) [10]): 50%
remaining binding at 1 µM (kinome (kinase panel) [11]): 16%
remaining binding at 1 µM (kinome (kinase panel) [12]): 85%
remaining binding at 1 µM (kinome (kinase panel) [13]): 4.9%
remaining binding at 1 µM (kinome (kinase panel) [14]): 85%
remaining binding at 1 µM (kinome (kinase panel) [15]): 95%
remaining binding at 1 µM (kinome (kinase panel) [16]): 32%
remaining binding at 1 µM (kinome (kinase panel) [17]): 92%
remaining binding at 1 µM (kinome (kinase panel) [18]): 100%
remaining binding at 1 µM (kinome (kinase panel) [19]): 18%
remaining binding at 1 µM (kinome (kinase panel) [20]): 94%
remaining binding at 1 µM (kinome (kinase panel) [21]): 5.4%
remaining binding at 1 µM (kinome (kinase panel) [22]): 69%
remaining binding at 1 µM (kinome (kinase panel) [23]): 100%
remaining binding at 1 µM (kinome (kinase panel) [24]): 100%
remaining binding at 1 µM (kinome (kinase panel) [25]): 7.2%
remaining binding at 1 µM (kinome (kinase panel) [26]): 65%
remaining binding at 1 µM (kinome (kinase panel) [27]): 100%
remaining binding at 1 µM (kinome (kinase panel) [28]): 98%
remaining binding at 1 µM (kinome (kinase panel) [29]): 100%
remaining binding at 1 µM (kinome (kinase panel) [30]): 58%
remaining binding at 1 µM (kinome (kinase panel) [31]): 78%
remaining binding at 1 µM (kinome (kinase panel) [32]): 94%
remaining binding at 1 µM (kinome (kinase panel) [33]): 58%
